Assay results taken from ChEMBL document CHEMBL4823332, “Discovery and Development of Cyclic Peptide Inhibitors of CIB1” (ACS Med Chem Lett, 2021).
Positions of bridges follow the written chain, without caps; N, C: chain ends. Non-standard residues stand in square brackets, D forms with d. Residues, ends and D or L forms follow the SMILES beside them. NMeW = CN[C@@H](Cc1c[nH]c2ccccc12)C(=O)O; Ala(2-furyl) = N[C@@H](Cc1ccco1)C(=O)O; NMeY = CN[C@@H](Cc1ccc(O)cc1)C(=O)O; hLeu = CC(C)CC[C@H](N)C(=O)O; NMeA = CN[C@@H](C)C(=O)O

What follows are molecules tested against T1, Calcium and integrin-binding protein 1 (Homo sapiens, UniProt Q99828) (assay: Displacement of Alexa Fluor 647 labelled UNC10245092 peptide from CIB1 (unknown origin) preincubated for 20 mins followed by Alexa-CIB1 phage peptide addition and measured after 20 to 30 mins by TR-FRET assay).
T1 sequence (Q99828 whole entry): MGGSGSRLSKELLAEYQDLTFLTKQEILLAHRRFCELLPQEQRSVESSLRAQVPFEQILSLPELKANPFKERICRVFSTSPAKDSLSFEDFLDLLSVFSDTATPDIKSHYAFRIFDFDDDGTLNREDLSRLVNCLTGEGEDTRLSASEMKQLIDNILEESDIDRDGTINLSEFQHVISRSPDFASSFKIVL
With CC[C@H](C)[C@@H]1NC(=O)[C@H]([C@@H](C)O)NC(=O)[C@H](Cc2c[nH]c3ccccc23)NC(=O)[C@@H]2CCCN2C(=O)CNC(=O)[C@H]([C@@H](C)O)NC(=O)[C@H](Cc2ccc(O)cc2)NC(=O)CSC[C@H](C(N)=O)NC(=O)[C@H](Cc2c[nH]c3ccccc23)NC(=O)[C@H](CCCNC(=N)N)NC1=O the IC50 was 12 nM. CCCC[C@@H]1NC(=O)[C@H](Cc2ccc(O)cc2)N(C)C(=O)CSC[C@@H](C(N)=O)NC(=O)[C@H](Cc2c[nH]c3ccccc23)NC(=O)[C@H](CC(N)=O)NC(=O)[C@H]([C@@H](C)CC)NC(=O)[C@H](CC(C)C)NC(=O)[C@H](Cc2c[nH]c3ccccc23)NC(=O)[C@H](Cc2ccc(O)cc2)NC(=O)[C@@H]2CCCN2C(=O)[C@@H](CCC(C)C)NC1=O was tested, and the IC50 was 840 nM. For CCCC[C@@H]1NC(=O)[C@H](Cc2ccc(O)cc2)N(C)C(=O)CSC[C@@H](C(N)=O)NC(=O)[C@H](Cc2c[nH]c3ccccc23)NC(=O)[C@@H](Cc2ccco2)NC(=O)[C@H]([C@@H](C)CC)NC(=O)[C@H](CC(C)C)NC(=O)[C@H](Cc2c[nH]c3ccccc23)NC(=O)[C@H](Cc2ccc(O)cc2)N(C)C(=O)[C@@H]2CCCN2C(=O)[C@H](CCC(N)=O)NC1=O, the IC50 was 3900 nM. CC[C@H](C)[C@@H]1NC(=O)[C@H](CC(C)C)NC(=O)[C@H](Cc2c[nH]c3ccccc23)NC(=O)[C@H](Cc2ccc(O)cc2)NC(=O)[C@@H]2CCCN2C(=O)[C@H](CCC(N)=O)NC(=O)[C@H](CCCCN)NC(=O)[C@H](C)NC(=O)CSC[C@@H](C(N)=O)NC(=O)[C@H](Cc2c[nH]c3ccccc23)NC(=O)[C@H](CC(N)=O)NC1=O ({CH2CO}-AKQPYWLINWC-NH2; thioether N-11) gave an IC50 of 2500 nM. For CC[C@H](C)[C@@H]1NC(=O)[C@H](CC(C)C)NC(=O)[C@H](Cc2c[nH]c3ccccc23)NC(=O)[C@H](Cc2ccccc2)NC(=O)[C@@H]2CCCN2C(=O)[C@H](C)NC(=O)[C@H](C)NC(=O)[C@H](Cc2ccc(O)cc2)NC(=O)CSC[C@@H](C(N)=O)NC(=O)[C@H](Cc2c[nH]c3ccccc23)NC(=O)[C@H](CC(C)C)NC1=O ({CH2CO}-YAAPFWLILWC-NH2; thioether N-11), the IC50 was 300 nM. CC[C@H](C)[C@@H]1NC(=O)[C@H](CC(C)C)NC(=O)[C@H](Cc2c[nH]c3ccccc23)NC(=O)[C@H](Cc2ccc(O)cc2)NC(=O)[C@@H]2CCCN2C(=O)[C@H](C)NC(=O)[C@H](C)NC(=O)[C@H](Cc2ccc(O)cc2)NC(=O)CSC[C@@H](C(N)=O)NC(=O)[C@H](Cc2c[nH]c3ccccc23)NC(=O)[C@H](C)NC1=O ({CH2CO}-YAAPYWLIAWC-NH2; thioether N-11) was tested, and the IC50 was 820 nM. CC[C@H](C)[C@@H]1NC(=O)[C@H](CC(C)C)NC(=O)[C@H](Cc2c[nH]c3ccccc23)NC(=O)[C@H](Cc2ccc(O)cc2)N(C)C(=O)[C@@H]2CCCN2C(=O)[C@H](CCC(N)=O)NC(=O)[C@H](C)NC(=O)[C@H](Cc2ccc(O)cc2)NC(=O)CSC[C@@H](C(N)=O)NC(=O)[C@H](Cc2c[nH]c3ccccc23)NC(=O)[C@H](CC(C)C)NC1=O ({CH2CO}-YAQP[NMeY]WLILWC-NH2; thioether N-11) showed an IC50 of 67 nM. Molecule CC[C@H](C)[C@@H]1NC(=O)[C@H](CC(C)C)NC(=O)[C@H](Cc2c[nH]c3ccccc23)NC(=O)[C@H](Cc2ccc(O)cc2)NC(=O)[C@@H]2CCCN2C(=O)[C@H](C)NC(=O)[C@H](CCCCN)NC(=O)[C@H](Cc2ccc(O)cc2)NC(=O)CSC[C@@H](C(N)=O)NC(=O)[C@H](Cc2c[nH]c3ccccc23)NC(=O)[C@H](CC(N)=O)NC1=O ({CH2CO}-YKAPYWLINWC-NH2; thioether N-11) has an IC50 of 40 nM. For CC[C@H](C)[C@@H]1NC(=O)[C@H](CC(C)C)NC(=O)[C@H](Cc2c[nH]c3ccccc23)NC(=O)[C@H](Cc2ccc(O)cc2)NC(=O)[C@H](C)NC(=O)[C@H](CCC(N)=O)NC(=O)[C@H](CCCCN)NC(=O)[C@H](Cc2ccc(O)cc2)NC(=O)CSC[C@@H](C(N)=O)NC(=O)[C@H](Cc2c[nH]c3ccccc23)NC(=O)[C@H](CC(N)=O)NC1=O ({CH2CO}-YKQAYWLINWC-NH2; thioether N-11), the IC50 was 9 nM. CC[C@H](C)[C@@H]1NC(=O)[C@H](CC(C)C)NC(=O)[C@H](Cc2c[nH]c3ccccc23)NC(=O)[C@H](C)NC(=O)[C@@H]2CCCN2C(=O)[C@H](CCC(N)=O)NC(=O)[C@H](CCCCN)NC(=O)[C@H](Cc2ccc(O)cc2)NC(=O)CSC[C@@H](C(N)=O)NC(=O)[C@H](Cc2c[nH]c3ccccc23)NC(=O)[C@H](CC(N)=O)NC1=O ({CH2CO}-YKQPAWLINWC-NH2; thioether N-11) showed an IC50 of 470 nM. For CC[C@H](C)[C@@H]1NC(=O)[C@H](CC(C)C)NC(=O)[C@H](C)NC(=O)[C@H](Cc2ccc(O)cc2)NC(=O)[C@@H]2CCCN2C(=O)[C@H](CCC(N)=O)NC(=O)[C@H](CCCCN)NC(=O)[C@H](Cc2ccc(O)cc2)NC(=O)CSC[C@@H](C(N)=O)NC(=O)[C@H](Cc2c[nH]c3ccccc23)NC(=O)[C@H](CC(N)=O)NC1=O ({CH2CO}-YKQPYALINWC-NH2; thioether N-11), the IC50 was 430 nM. Work on CC[C@H](C)[C@@H]1NC(=O)[C@H](C)NC(=O)[C@H](Cc2c[nH]c3ccccc23)NC(=O)[C@H](Cc2ccc(O)cc2)NC(=O)[C@@H]2CCCN2C(=O)[C@H](CCC(N)=O)NC(=O)[C@H](CCCCN)NC(=O)[C@H](Cc2ccc(O)cc2)NC(=O)CSC[C@@H](C(N)=O)NC(=O)[C@H](Cc2c[nH]c3ccccc23)NC(=O)[C@H](CC(N)=O)NC1=O ({CH2CO}-YKQPYWAINWC-NH2; thioether N-11) yielded an IC50 of 15 nM. Molecule CC(C)C[C@@H]1NC(=O)[C@H](Cc2c[nH]c3ccccc23)NC(=O)[C@H](Cc2ccc(O)cc2)NC(=O)[C@@H]2CCCN2C(=O)[C@H](CCC(N)=O)NC(=O)[C@H](CCCCN)NC(=O)[C@H](Cc2ccc(O)cc2)NC(=O)CSC[C@@H](C(N)=O)NC(=O)[C@H](Cc2c[nH]c3ccccc23)NC(=O)[C@H](CC(N)=O)NC(=O)[C@H](C)NC1=O ({CH2CO}-YKQPYWLANWC-NH2; thioether N-11) has an IC50 of 170 nM. In the case of CC[C@H](C)[C@@H]1NC(=O)[C@H](CC(C)C)NC(=O)[C@H](Cc2c[nH]c3ccccc23)NC(=O)[C@H](Cc2ccc(O)cc2)NC(=O)[C@@H]2CCCN2C(=O)[C@H](CCC(N)=O)NC(=O)[C@H](CCCCN)NC(=O)[C@H](Cc2ccc(O)cc2)NC(=O)CSC[C@@H](C(N)=O)NC(=O)[C@H](Cc2c[nH]c3ccccc23)NC(=O)[C@H](C)NC1=O ({CH2CO}-YKQPYWLIAWC-NH2; thioether N-11), the IC50 is reported as 76 nM. Work on CC[C@H](C)[C@@H]1NC(=O)[C@H](CC(C)C)NC(=O)[C@H](Cc2c[nH]c3ccccc23)NC(=O)[C@H](Cc2ccc(O)cc2)NC(=O)[C@@H]2CCCN2C(=O)[C@H](CCC(N)=O)NC(=O)[C@H](CCCCN)NC(=O)[C@H](Cc2ccc(O)cc2)NC(=O)CSC[C@@H](C(N)=O)NC(=O)[C@H](C)NC(=O)[C@H](CC(N)=O)NC1=O ({CH2CO}-YKQPYWLINAC-NH2; thioether N-11) yielded an IC50 of 7100 nM. CC[C@H](C)[C@@H]1NC(=O)[C@H](CC(C)C)NC(=O)[C@H](Cc2c[nH]c3ccccc23)N(C)C(=O)[C@H](Cc2ccc(O)cc2)NC(=O)[C@@H]2CCCN2C(=O)[C@H](CCC(N)=O)NC(=O)[C@H](CCCCN)NC(=O)[C@H](Cc2ccc(O)cc2)NC(=O)CSC[C@@H](C(N)=O)NC(=O)[C@H](Cc2c[nH]c3ccccc23)NC(=O)[C@H](CC(N)=O)NC1=O ({CH2CO}-YKQPY[NMeW]LINWC-NH2; thioether N-11) showed an IC50 of 59 nM. In the case of CC[C@H](C)[C@@H]1NC(=O)[C@H](CCCNC(=N)N)NC(=O)[C@H](Cc2c[nH]c3ccccc23)NC(=O)[C@H]([C@@H](C)O)NC(=O)[C@H](CO)NC(=O)[C@H](CCC(N)=O)NC(=O)[C@H](CCC(N)=O)NC(=O)[C@H](Cc2ccc(O)cc2)NC(=O)CSC[C@@H](C(N)=O)NC(=O)[C@H](Cc2c[nH]c3ccccc23)NC(=O)[C@H](CC(N)=O)NC1=O ({CH2CO}-YQQSTWRINWC-NH2; thioether N-11), the IC50 is reported as 65 nM. CC[C@H](C)[C@@H]1NC(=O)[C@H](CC(N)=O)NC(=O)[C@H](Cc2c[nH]c3ccccc23)NC(=O)[C@H]([C@@H](C)CC)NC(=O)[C@@H]2CCCN2C(=O)[C@H]([C@@H](C)O)NC(=O)[C@H]([C@@H](C)O)NC(=O)[C@H](Cc2ccc(O)cc2)NC(=O)CSC[C@@H](C(N)=O)NC(=O)[C@H](Cc2ccccc2)NC(=O)[C@H](CCCNC(=N)N)NC1=O ({CH2CO}-YTTPIWNIRFC-NH2; thioether N-11) gave an IC50 of 15 nM. Work on CC[C@H](C)[C@@H]1NC(=O)[C@H](CC(C)C)NC(=O)[C@H](Cc2c[nH]c3ccccc23)N(C)C(=O)[C@H](Cc2ccc(O)cc2)NC(=O)[C@@H]2CCCN2C(=O)[C@H](CCC(N)=O)NC(=O)[C@H](C)N(C)C(=O)[C@H](Cc2ccc(O)cc2)NC(=O)CSC[C@@H](C(N)=O)NC(=O)[C@H](Cc2c[nH]c3ccccc23)NC(=O)[C@H](CC(N)=O)NC1=O ({CH2CO}-Y[NMeA]QPY[NMeW]LINWC-NH2; thioether N-11) yielded an IC50 of 54 nM. With CC[C@H](C)[C@@H]1NC(=O)[C@H](CC(C)C)NC(=O)[C@H](Cc2c[nH]c3ccccc23)N(C)C(=O)[C@H](Cc2ccc(O)cc2)NC(=O)[C@@H]2CCCN2C(=O)[C@H](CCC(N)=O)NC(=O)[C@H](C)N(C)C(=O)[C@H](Cc2ccc(O)cc2)NC(=O)CSC[C@@H](C(N)=O)NC(=O)[C@H](Cc2c[nH]c3ccccc23)NC(=O)[C@H](Cc2ccco2)NC1=O ({CH2CO}-Y[NMeA]QPY[NMeW]LI[Ala(2-furyl)]WC-NH2; thioether N-11) the IC50 was 190 nM. Work on CC[C@H](C)[C@@H]1NC(=O)[C@H](CC(C)C)NC(=O)[C@H](Cc2c[nH]c3ccccc23)NC(=O)[C@H](Cc2ccc(O)cc2)NC(=O)[C@@H]2CCCN2C(=O)[C@H](CCC(C)C)NC(=O)[C@H](C)N(C)C(=O)[C@H](Cc2ccc(O)cc2)NC(=O)CSC[C@@H](C(N)=O)NC(=O)[C@H](Cc2c[nH]c3ccccc23)NC(=O)[C@H](Cc2ccco2)NC1=O ({CH2CO}-Y[NMeA][hLeu]PYWLI[Ala(2-furyl)]WC-NH2; thioether N-11) yielded an IC50 of 4200 nM.
